The IC50 is the concentration needed to halve the response being measured. Read a high IC50 as weaker potency. One may read the EC50 as the concentration needed to bring the measured effect to its halfway point.

One series concerns the target T1, human α7-nAChR (Homo sapiens, UniProt P36544).
T1 construct: expressed in transfected cells; host or cells: GH3 cells
In words: functional calcium (FLIPR) assay in GH3 cells recombinantly expressing human α7-nAChR. Format: cell-based. The conditions noted are these: for EC50: GH3 cells expressing human α7-nAChR, calcium FLIPR, read-out: α7-nAChR activity Potency EC50. The procedure: Assay. To assess a7-nAChR activity, a functional assay was employed using GH3 cells that recombinantly expressed human α7-nAChR, 5×10^4 cells per well were seeded 72 h prior to the experiment on black 96-well plates (Costar) and incubated at 37° C. in a humidified atmosphere (5% CO2/95% air). On the day of the experiment, medium was removed by flicking the plates and replaced with 100 μl growth medium containing […] Fluo-4, (Molecular Probes) in the presence of 2.5 mM probenecid (Sigma). The cells were incubated at 37° C. in a humidified atmosphere (5% CO2/95% air) for 1 h. Plates were flicked to remove excess of Fluo-4, washed twice with Hepes-buffered salt solution (in mM: NaCl 130, KCl 5.4 CaCl2 2, MgSO4 0.8, NaH2PO4 0.9, glucose 25, Hepes 20, pH 7.4; HBS) and refilled with 100 μl of HBS containing antagonist when appropriate. The incubation in the presence of the antagonist lasted 3-5 minutes. Plates were placed in the cell plate stage of a FLIPR device (fluorescent imaging plate reader, Molecular Devices, Sunnyvale, Calif., USA).
After recording of the baseline (laser: excitation 488 nm at 1 W, CCD camera opening of 0.4 seconds) the agonists (50 μl) were added to the cell plate using the FLIPR 96-tip pipettor while simultaneously recording the fluorescence, Calcium kinetic data were normalized to the maximal fitted response induced by epibatidine, which is a full agonist at α7-nAChR, Four parameter Hill equations were fitted to the concentration-response. Values of Emax (maximal effect in % compared to the epibatidine response) and EC50 (concentration producing half the maximal effect in μM) were derived from this fit.
(§1) Assay described in: D Feuerbach et al, Neuropharmacology (2005), 48, 215-227. To assess the activity of the compound of the invention on the human neuronal nAChR α4β2, a similar functional assay is carried out using a human epithelial cell line stably expressing the human α4β2 subtype (Michelmore et al., Naunyn-Schmiedeberg's Arch. Pharmacol. (2002) 366, 235),

Series [1] concerns the target T2, human neuronal nAChR α4β2 (Homo sapiens, UniProt P17787+P43681).
T2 construct: expressed in transfected cells
Put plainly: similar functional assay in a human epithelial cell line stably expressing the human α4β2 subtype. Format: cell-based. As for the experimental part: as §1

Series [2] in a line: Oral bioavailability and brain penetration in mice. The series is classed as in vivo. Particulars: 30 μmol/kg p.o.; for concentration at 0.25 h / concentration at 0.5 h / concentration at 1 h / concentration at 2 h / concentration at 4 h / concentration at 8 h: plasma. As for the experimental part:
Assay: Compounds were orally (30 μmol/kg) administered. Male mice (30-35 g, OF1/ICstrain) were sacrificed at indicated time points after oral administration. Trunk-blood was collected in EDTA-containing tubes and the brain was removed and immediately frozen on dry ice. To 100 μl plasma 10 μl internal standard (1.0 μmol of a compound with solubility and ionization properties similar to test compounds) was added and extracted three times with 500 μl dichloromethane. The combined extracts were then dried under a stream of nitrogen and re-dissolved in 100 μl acetonitrile/water (70% acetonitrile). Brains were weighed and homogenized in water (1:5 w/v). Two 100 μl aliquots of each homogenate 4-10 μl of internal standard (same standard as used for the plasma samples) were extracted three times with 500 μl dichlorornethane and further processed as the plasma samples. Samples were separated on Beckmann high-performance liquid chromatography equipment system with an autosampler (Gilson 233XL).
The limit of detection (LOD), defined as the lowest concentration of the extracted standard sample with a signal to noise ratio of ˜3.

Another series concerns mice. In words: Social Recognition Test in mice. Particulars: oral, familiar partner at 24 h vs time 0. Format: in vivo. The procedure: Assay: Social interactions between two experimental animals are influenced by their degree of familiarity: the better they know each other, the less time they spend on mutual scrutiny at each meeting. […] Memory enhancing agents (i.e. oxiracetam) facilitate learning to the extent that the previously met (familiar) partner is still remembered after 24 h, whereas in vehicle treated control animals the memory usually fades after less than 1 hour (Thor and Holloway, 1982) or after 2-3 hours.
Baseline-test: Pairs consisting of one adult and one young mouse were assigned at random to the experimental and control groups. In each pair only the adult mouse was orally treated 1 hour before the trial with either vehicle or the test compound. The duration of active contacts of the adult mouse with the young mouse was manually recorded over a period of 3 min, including the following behavioural, approach-related items: sniffing, nosing, grooming, licking, pawing and playing, anogenital exploration and orientation toward the young mouse; orientation, thereby, was defined as tip of nose of the adult mouse less than approximately 1 cm distant from the young mouse's body. […]

The next series has as its system FRDA. The conditions noted are these: cited from earlier work.
In the next series the test system is patients with FRDA. The conditions noted are these: two patients with FRDA, varenicline p.o. 0.5 mg/kg per day; cited from earlier work.
The subject of a further series is patients with SCA3/SCA14. Particulars: two patients with SCA3/SCA14, varenicline p.o. 0.5 mg/kg per day; cited from earlier work.
For series [3] the following is noted: clinical use in humans; cited from earlier work.
[4] abbreviates: male, OF1/IC, mouse, brain, po, 30 umol/kg, 0.5 hour, read-out: Ratio Brain/plasma.
[5] abbreviates: male, OF1/IC, mouse, brain, po, 30 umol/kg, 1 hour, read-out: Ratio Brain/plasma.
[6] abbreviates: male, OF1/IC, mouse, brain, po, 30 umol/kg, 2 hour, read-out: Ratio Brain/plasma.
Where [7] appears, read: male, OF1/IC, mouse, brain, po, 30 umol/kg, 4 hour, read-out: Ratio Brain/plasma.
Where [8] appears, read: male, OF1/IC, mouse, brain, po, 30 umol/kg, 0.25 hour, read-out: Ratio Brain/plasma.
The mark [9] stands for this setting: male, OF1/IC, mouse, brain, po, 30 umol/kg, 8 hour, read-out: Ratio Brain/plasma.
Setting [10] is: male, OF1/IC, mouse, po, 0.25 hour.
Where [11] appears, read: male, OF1/IC, mouse, po, 0.5 hour.
Where [12] appears, read: male, OF1/IC, mouse, po, 1 hour.
Where [13] appears, read: male, OF1/IC, mouse, po, 2 hour.
The mark [14] stands for this setting: male, OF1/IC, mouse, po, 4 hour.
[15] abbreviates: male, OF1/IC, mouse, po, 8 hour.

Where only a bound is given, the exact number is not on record here.

T1 sequence (P36544 23-502): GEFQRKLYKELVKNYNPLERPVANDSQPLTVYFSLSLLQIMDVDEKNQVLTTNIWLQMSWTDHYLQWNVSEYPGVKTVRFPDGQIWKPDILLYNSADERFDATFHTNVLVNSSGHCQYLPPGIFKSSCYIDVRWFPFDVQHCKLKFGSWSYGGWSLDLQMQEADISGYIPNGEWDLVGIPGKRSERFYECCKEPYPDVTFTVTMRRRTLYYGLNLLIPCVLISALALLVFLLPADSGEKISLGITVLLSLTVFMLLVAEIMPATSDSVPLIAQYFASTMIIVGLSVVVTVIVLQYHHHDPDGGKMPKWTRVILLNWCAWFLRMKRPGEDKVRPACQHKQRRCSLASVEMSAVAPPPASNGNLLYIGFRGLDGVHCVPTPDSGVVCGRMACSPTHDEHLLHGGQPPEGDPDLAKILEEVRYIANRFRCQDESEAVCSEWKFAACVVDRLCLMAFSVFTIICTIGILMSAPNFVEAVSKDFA
T2 sequence (P43681 29-627 limits assumed): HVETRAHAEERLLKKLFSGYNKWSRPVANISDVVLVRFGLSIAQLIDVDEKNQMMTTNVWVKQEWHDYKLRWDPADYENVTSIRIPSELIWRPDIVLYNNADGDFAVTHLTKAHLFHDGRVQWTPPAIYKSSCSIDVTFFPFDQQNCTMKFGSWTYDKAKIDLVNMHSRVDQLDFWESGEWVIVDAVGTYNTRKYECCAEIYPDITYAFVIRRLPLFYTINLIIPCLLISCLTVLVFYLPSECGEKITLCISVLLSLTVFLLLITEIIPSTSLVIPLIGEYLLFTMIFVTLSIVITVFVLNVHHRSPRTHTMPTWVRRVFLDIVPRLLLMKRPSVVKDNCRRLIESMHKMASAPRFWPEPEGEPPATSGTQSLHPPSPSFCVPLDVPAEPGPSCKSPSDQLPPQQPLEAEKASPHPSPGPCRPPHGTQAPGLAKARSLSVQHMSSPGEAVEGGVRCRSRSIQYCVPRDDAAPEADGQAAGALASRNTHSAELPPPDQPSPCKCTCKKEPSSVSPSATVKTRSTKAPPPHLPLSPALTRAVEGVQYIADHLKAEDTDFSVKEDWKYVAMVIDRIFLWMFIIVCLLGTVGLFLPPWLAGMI
T2 sequence (P17787 26-502): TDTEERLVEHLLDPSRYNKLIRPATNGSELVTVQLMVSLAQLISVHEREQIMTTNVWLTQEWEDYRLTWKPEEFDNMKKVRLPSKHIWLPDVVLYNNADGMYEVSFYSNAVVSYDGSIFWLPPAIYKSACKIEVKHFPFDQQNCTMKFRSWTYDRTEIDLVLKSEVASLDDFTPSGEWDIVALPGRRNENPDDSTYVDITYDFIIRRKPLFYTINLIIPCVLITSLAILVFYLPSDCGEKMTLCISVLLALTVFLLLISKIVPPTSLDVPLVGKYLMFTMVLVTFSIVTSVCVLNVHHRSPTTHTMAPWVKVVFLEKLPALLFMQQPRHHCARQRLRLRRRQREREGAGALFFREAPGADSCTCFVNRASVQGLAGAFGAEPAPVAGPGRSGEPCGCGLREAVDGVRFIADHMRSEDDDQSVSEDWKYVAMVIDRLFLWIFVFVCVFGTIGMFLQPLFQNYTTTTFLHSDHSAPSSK

Consider `C[C@H](OC(=O)N[C@@H]1CN2CCC1CC2)c1ccccc1F` [Compound A-1, (S)-(1-aza-bicyclo[2.2.2]oct-3-yl)-carbamic acid S-1-(2-fluoro-phenyl)ethylester], for which the “α7-nAChR activity Efficacy compared to epibatidine (100%)” value on human α7-nAChR (Emax, maximal effect in % compared to the epibatidine response) is given as 83%. In series [1], the IC50 turned out to be 23.4 µM. Also, the Brain in series [2] (0.5 hour) was 706.3 ± 153.4 pmoles/g ± SD; in series [2] (1 hour), 573.7 ± 109.3 pmoles/g ± SD; in series [2] (2 hour), 191.9 ± 34.9 pmoles/g ± SD; in series [2] (4 hour), 104.6 ± 39.6 pmoles/g ± SD; in series [2] (6 hour) it was 40.5 ± 12.1 pmoles/g ± SD; in series [2] (24 hour), 9.1 ± 2.7 pmoles/g ± SD. Besides, the Plasma in series [2] (0.5 hour) is on record as 634.9 ± 261.3 pmoles/ml ± SD; in series [2] (1 hour), 684.7 ± 339.6 pmoles/ml ± SD; in series [2] (2 hour) it was 168.2 ± 91.3 pmoles/ml ± SD; in series [2] (4 hour) it was 85.0 ± 54.3 pmoles/ml ± SD; in series [2] (6 hour) it was 29.5 ± 13.8 pmoles/ml ± SD; in series [2] (24 hour), 3.8 ± 0.6 pmoles/ml ± SD. Also, in series [2] (setting [4]), the Kp at 0.5 h stood at 1.1. In series [2] (setting [5]), the Kp at 1 h amounted to 0.8. In addition, in series [2] (setting [6]), the Kp at 2 h came out at 1.1. In series [2] (setting [7]), the Kp at 4 h came out at 1.2. For the same compound, the Kp at 6 h in series [2] (male, OF1/IC, mouse, brain, po, 30 umol/kg, 6 hour, read-out: Ratio Brain/plasma) is 1.4. Also, the Kp at 24 h in series [2] (male, OF1/IC, mouse, brain, po, 30 umol/kg, 24 hour, read-out: Ratio Brain/plasma) was 2.4. Also, the “Reduction in time scrutinizing in % ± SEM at 24 h” value in the series with mice (dose 3 mg/kg) was 52 ± 4 % ± SEM.
On to `C[C@H]1[C@H](Oc2ccc(-c3ccc4[nH]ccc4c3)nn2)C2CCN1CC2` [Compound B-13, (2S,3R)-3-[6-(1H-indol-5-yl)-pyridazin-3-yloxy]-2-methyl-1-aza-bicyclo[2.2.2]octane], for which the EC50 on human α7-nAChR is 0.013 µM; in series [1] it was more than 100 µM. This compound gave an IC50 in series [1] of 4.22 µM. Besides, the Brain was 1884 ± 291 pmoles/g ± SD in series [2] (0.25 hour); 2960 ± 706 pmoles/g ± SD in series [2] (0.5 hour); 2940 ± 335 pmoles/g ± SD in series [2] (1 hour); 1260 ± 172 pmoles/g ± SD in series [2] (2 hour); 379 ± 134 pmoles/g ± SD in series [2] (4 hour); 93 ± 30 pmoles/g ± SD in series [2] (8 hour). For the same compound, in series [2] (24 hour), the Brain is 13 ± 4 pmoles/g ± SD. For the same compound, the Kp at 0.25 h in series [2] (setting [8]) was 0.86. Moreover, in series [2] (setting [4]), the Kp at 0.5 h was 1.31. Moreover, the Kp at 1 h in series [2] (setting [5]) was 1.89. Also, the Kp at 2 h in series [2] (setting [6]) came to 1.07. Besides, in series [2] (setting [7]), the Kp at 4 h stood at 0.88. Moreover, in series [2] (setting [9]), the Kp at 8 h is 1.17. In addition, the concentration at 0.25 h in series [2] (setting [10]) came out at 2200 ± 397 nM. This compound gave a concentration at 0.5 h in series [2] (setting [11]) of 2260 ± 419 nM. The same compound displayed a concentration at 1 h in series [2] (setting [12]) of 1550 ± 523 nM. In series [2] (setting [13]), this compound gave a concentration at 2 h of 1170 ± 252 nM. The same compound gave a concentration at 4 h in series [2] (setting [14]) of 429 ± 167 nM. The compound further returned a concentration at 8 h in series [2] (setting [15]) of 80 ± 23 nM. In the series on mice (dose 0.3 mg/kg), the “Reduction in time scrutinizing in % ± SEM at 24 h” value was 37 ± 7 % ± SEM.
Turning to `c1cc2cc(-c3cnc(O[C@H]4CCN5CCC[C@@H]4C5)nc3)ccc2[nH]1` [Compound C-1, (4S,5R)-4-[5-(1H-indol-5-yl)-pyrimidin-2-yloxy]-1-aza-bicyclo[3.3.1]nonane], the values for the EC50 (at human α7-nAChR; in series [1]) were 0.024 µM and more than 100 µM, respectively. Also, in series [1], inhibition was half-maximal at 9.33 µM (IC50). Besides, the Brain in series [2] (0.25 hour) is listed as 620 ± 221 pmoles/g ± SD; in series [2] (0.5 hour) it was 1405 ± 539 pmoles/g ± SD; in series [2] (1 hour), 1458 ± 189 pmoles/g ± SD; in series [2] (2 hour) it was 1478 ± 259 pmoles/g ± SD; in series [2] (4 hour), 842 ± 187 pmoles/g ± SD; in series [2] (8 hour), 362 ± 62 pmoles/g ± SD. Further, the Kp at 0.25 h in series [2] (setting [8]) was determined as 0.39. Moreover, the Kp at 0.5 h in series [2] (setting [4]) turned out to be 0.41. Further, in series [2] (setting [5]), the Kp at 1 h is 1.17. The Kp at 2 h in series [2] (setting [6]) amounted to 1.69. Moreover, the Kp at 4 h in series [2] (setting [7]) was 1.11. Also, the Kp at 8 h in series [2] (setting [9]) turned out to be 1.51. The concentration at 0.25 h in series [2] (setting [10]) stood at 1600 ± 758 nM. In addition, the concentration at 0.5 h in series [2] (setting [11]) came out at 3410 ± 956 nM. This compound also yielded a concentration at 1 h in series [2] (setting [12]) of 1240 ± 583 nM. The concentration at 2 h in series [2] (setting [13]) amounted to 875 ± 261 nM. In series [2] (setting [14]), this compound had a concentration at 4 h of 762 ± 159 nM. Further, the concentration at 8 h in series [2] (setting [15]) was 239 ± 27 nM.
For `Cc1c(O)c(=O)ccn1C` [deferiprone], the “effects in clinical trials for FRDA” value in the series with FRDA is on record as “showed effects in clinical trials”.
Regarding `COC1=C(OC)C(=O)C(CCCCCCCCCCO)=C(C)C1=O` [idebenone], the “effects in clinical trials for FRDA” value in the series with FRDA is “showed effects in clinical trials”.
With `c1cnc2cc3c(cc2n1)C1CNCC3C1` [varenicline, 7,8,9,10-tetrahydro-6,10-methano-6H-pyrazino-(2,3-h)(3)-benzazepine], the “ataxia improvements in patients” value in the series with patients with FRDA and in the series with patients with SCA3/SCA14 was “showed improvements” in each case. The “adverse effects reported during clinical use” value in series [3] was “nausea, sleep disturbance, constipation, vivid dreams, flatulence and vomiting”.

Source of the values: patent US20120157464A1, “USE OF AZABICYCLOALKYL DERIVATIVES OR PYRROLIDINE-2-ONE DERIVATIVES FOR THE TREATMENT OR PREVENTION OF ATAXIA” (NOVARTIS AG, priority 2009, published 2012).
